Key:
[1] = system: Corynebacterium xerosis ATCC 373; test: Agar diffusion test (caso-agar, stamped-out holes); type: cell-based; details: for Inhibitory aureola diameter Cory. xerosis ATTC 373: 10000 ppm, 100 μl per hole in double-distilled water, 37° C. for 2 days, two values per cell
Method: (§1) Test method: An agar diffusion test is carried out with the following modifications: Medium: casein-soya flour peptone agar (caso-agar) Test organisms: Corynebacterium xerosis ATCC 373 Corynebacterium xerosis ATCC 7711 Corynebacterium minutissimum ATCC 23358 Procedure: 500 ml of caso-agar are innoculated with 3.5 ml of an overnight culture of the bacteria, diluted 1:100, and caso plates (18 ml) are covered with a layer of about 5 ml of the bacteria-containing agar. […] Each stamped-out hole is filled with in each case 100 μl of a test substance dilution and the plates are incubated at 37° C. for 2 days. Double-distilled water is employed as the solvent for all the substances. In the case of […], the pH is adjusted to 3.3 by addition of 1 N NaOH. Chemically prepared S,S-EDDS is adjusted to the pH of 5.6 by addition of 1 N NaOH. Controls: Double-distilled water

[2] = system: Corynebacterium xerosis ATCC 7711; test: Agar diffusion test (caso-agar, stamped-out holes); type: cell-based; details: 10000 ppm, 100 μl per hole in double-distilled water, 37° C. for 2 days; two values per cell
Method: as §1

SMILES | Inhibitory aureola diameter Cory. xerosis ATTC 373 [1] | Inhibitory aureola diameter Cory. xerosis ATTC 7711 [2] | bacteriostatic action against Corynebacterium xerosis ([1]; summary in words of Table 1 (both strains))
O=C(O)C[C@H](NCCN[C@@H](CC(=O)O)C(=O)O)C(=O)O [S,S-EDDS (prepared by fermentation), (S,S)-N,N′-ethylenediaminedisuccinic acid] | 10/10^1 | 15/15^1 | 
O=C(O)CN(CCN(CC(=O)O)CC(=O)O)CC(=O)O [EDTA, ethylenediaminetetraacetic acid, reference compound] | 5/5 | 2/2 | pronounced bacteriostatic action
O=C(O)C[C@H](NCCN[C@@H](CC(=O)O)C(=O)O)C(=O)O [R,R-EDDS, ethylenediaminedisuccinic acid] | 15/15 |  | 
